Experimental data as given in patent US20250296971A1, “GASTRIC INHIBITORY PEPTIDE RECEPTOR LIGANDS” (priority 2021, published 2025).
*1 amine or outer side, *2 acyl side, *3 side chain or, on linkers, in order; H or OH if unused. Where a SMILES comes first, the peptide text is derived from it. Bridges are numbered along the chain shown (N, C = ends). [ ]: non-standard residue; d: D form. The star is where a group is joined. X16 = NC(=O)[C@H](CCCCNC(=O)CN1CCN2CCN3CCN(CC1)CC(=O)[O][Lu]([O]C(=O)C2)[O]C(=O)C3)NC(=O)CCC(=O)NCCCOCCOCCOCCCN*; X5 = NC(=O)[C@H](CCCCNC(=O)CN1CCN(CC(=O)O)CCN(CC(=O)O)CCN(CC(=O)O)CC1)NC(=O)CCC(=O)NCCCOCCOCCOCCCN*; X19 = O=C(O)CN1CCN(CC(=O)O)CCN(CC(=O)N2CCN(Cc3cc(C[*:1])cc(C[*:2])c3)CC2)CCN(CC(=O)O)CC1; X11 = O=C(CN1CCN2CCN3CCN(CC1)CC(=O)[O][In]([O]C(=O)C2)[O]C(=O)C3)NCCCOCCOCCOCCCN*; X13 = O=C(CN1CCN2CCN3CCN(CC1)CC(=O)[O][Lu]([O]C(=O)C2)[O]C(=O)C3)NCCCOCCOCCOCCCN*; X3 = O=C(O)CN1CCN(CC(=O)O)CCN(CC(=O)NCCCOCCOCCOCCCN*)CCN(CC(=O)O)CC1; NH(1-deoxy-D-glucityl) = OC[C@@H](O)[C@@H](O)[C@H](O)[C@@H](O)CN*; X26 = O=C(O)CN1CCN2CCN(CCN(CC(=O)*)CC1)CC(=O)[O][Zn][O]C(=O)C2; Trp(5-Cl) = N[C@@H](Cc1c[nH]c2ccc(Cl)cc12)C(=O)O; Trp(6-Cl) = N[C@@H](Cc1c[nH]c2cc(Cl)ccc12)C(=O)O; Trp(6-F) = N[C@@H](Cc1c[nH]c2cc(F)ccc12)C(=O)O; mXylylene = c1cc(C[*:1])cc(C[*:2])c1; Glutaryl = O=C(CCCC(=O)[*:2])[*:1]; X6 = c1cc(CSCCN[*:2])nc(C[*:1])c1; X7 = c1cc(CSCCN[*:2])cc(C[*:1])c1; Hyp = O=C(O)[C@@H]1C[C@@H](O)CN1; Suc = O=C(CCC(=O)[*:2])[*:1]; αMeS = C[C@](N)(CO)C(=O)O; Api = NC1(C(=O)O)CCNCC1; Thp = NC1(C(=O)O)CCOCC1; Aib = CC(C)(N)C(=O)O; Sar = CNCC(=O)O

What follows are molecules tested against T1, GIPR (CHO-K1-hGIPR cells) (Homo sapiens, UniProt P48546) (assay: FACS binding assay). Conditions: competition with 20 nM GIP-057, 4° C., 1 hour, read-out: pIC50 Category (converted).
T1 construct: host or cells: CHO-K1
T1 sequence (P48546 22-466): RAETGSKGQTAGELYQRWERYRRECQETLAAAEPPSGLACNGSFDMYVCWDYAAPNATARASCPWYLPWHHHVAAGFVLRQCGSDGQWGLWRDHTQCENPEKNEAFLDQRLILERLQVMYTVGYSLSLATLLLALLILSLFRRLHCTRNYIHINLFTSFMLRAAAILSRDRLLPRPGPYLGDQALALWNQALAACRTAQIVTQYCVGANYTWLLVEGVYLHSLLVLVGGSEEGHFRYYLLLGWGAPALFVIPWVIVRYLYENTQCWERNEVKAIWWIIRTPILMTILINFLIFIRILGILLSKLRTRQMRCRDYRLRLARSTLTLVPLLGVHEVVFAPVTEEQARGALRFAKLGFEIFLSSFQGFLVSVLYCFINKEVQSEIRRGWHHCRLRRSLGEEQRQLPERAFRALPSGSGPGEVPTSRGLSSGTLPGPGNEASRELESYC
In short: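 CHO-K1 cells expressing human GIPR, washed in PBS/1% FCS, then stained with 1 μg/mL APC-streptavidin for 30 min on ice.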

Compound	IC50
CC[C@H](C)[C@@H]1NC(=O)[C@H](CC(C)C)NC(=O)C(C)(C)NC(=O)[C@@H](NC(=O)[C@@H](CC(C)C)NC(=O)[C@H](CCC(=O)O)NC(=O)[C@@H]2CCCN2C(=O)[C@H](Cc2c[nH]c3cc(F)ccc23)NC(=O)[C@H](Cc2c[nH]c3ccccc23)NC(=O)[C@H](CC(=O)O)NC(C)=O)CSCc2cccc(c2)CSC[C@@H](C(=O)NCCCOCCOCCOCCCNC(=O)CCC(=O)N[C@@H](CCCCNC(=O)CN2CCN(CC(=O)O)CCN(CC(=O)O)CCN(CC(=O)O)CC2)C(N)=O)NC1=O [GIP-140, Ac-Asp-Trp-6Fw-Pro-Glu-leu-[Cys(3MeBn)-Aib-Leu-Ile-Cys]-Ttds-Lys(DOTA)-NH2] (Ac-DW[Trp(6-F)]PE[dL]C[Aib]LIC-X5; linker 7-11 via mXylylene)	10 to 79.4 nM
CC[C@H](C)[C@@H]1NC(=O)[C@H](CC(C)C)NC(=O)C(C)(C)NC(=O)[C@@H](NC(=O)[C@@H](CC(C)C)NC(=O)[C@H](CCC(=O)O)NC(=O)[C@@H]2CCCN2C(=O)[C@H](Cc2c[nH]c3ccccc23)NC(=O)[C@H](Cc2c[nH]c3cc(Cl)ccc23)NC(=O)[C@H](CC(=O)O)NC(=O)CCC(=O)NCCCOCCOCCOCCCNC(=O)CN2CCN(CC(=O)O)CCN(CC(=O)O)CCN(CC(=O)O)CC2)CSCc2cccc(c2)CSCCNC1=O [GIP-141, DOTA-Ttds-Asp-6Clw-Trp-Pro-Glu-leu-[Cys(3MeBn)-Aib-Leu-Ile-AET]] ({X3-Suc}-D[Trp(6-Cl)]WPE[dL]C[Aib]LI; linker 7-C via X7)	10 to 79.4 nM
CC[C@H](C)[C@@H]1NC(=O)[C@H](CC(C)C)NC(=O)C2(CCOCC2)NC(=O)[C@@H](NC(=O)[C@@H](CC(C)C)NC(=O)[C@H](CCC(=O)O)NC(=O)[C@@H]2C[C@@H](O)CN2C(=O)[C@H](Cc2c[nH]c3ccc(Cl)cc23)NC(=O)[C@H](Cc2c[nH]c3ccccc23)NC(=O)[C@H](CC(=O)O)NC(C)=O)CSCc2cc(cc(CN3CCN(C(=O)CN4CCN(CC(=O)O)CCN(CC(=O)O)CCN(CC(=O)O)CC4)CC3)c2)CSC[C@@H](C(N)=O)NC1=O [GIP-145, Ac-Asp-Trp-5Clw-Hyp-Glu-leu-[Cys(tMeBn(DOTA-PP))-Thp-Leu-Ile-Cys]-NH2] (Ac-DW[Trp(5-Cl)][Hyp]E[dL]C[Thp]LIC-NH2; linker 7-11 via X19)	10 to 79.4 nM
CC[C@H](C)[C@@H]1NC(=O)[C@H](CC(C)C)NC(=O)C2(CCN(C(=O)CN3CCN(CC(=O)O)CCN4CCN(CC3)CC(=O)[O][Zn][O]C(=O)C4)CC2)NC(=O)[C@@H](NC(=O)[C@@H](CC(C)C)NC(=O)[C@H](CCC(=O)O)NC(=O)[C@@H]2C[C@@H](O)CN2C(=O)[C@H](Cc2c[nH]c3ccc(Cl)cc23)NC(=O)[C@H](Cc2c[nH]c3ccccc23)NC(=O)[C@H](CC(=O)O)NC(=O)CCCC(=O)NC[C@H](O)[C@@H](O)[C@H](O)[C@H](O)CO)CSCc2cccc(n2)CSCCNC1=O [GIP-147, AGLU-Glutar-Asp-Trp-5Clw-Hyp-Glu-leu-[Cys(2Lut)-Apc(ZnDOTA)-Leu-Ile-AET]] ({NH(1-deoxy-D-glucityl)-Glutaryl}-DW[Trp(5-Cl)][Hyp]E[dL]C[Api](X26)LI; linker 7-C via X6)	< 10 nM
CC[C@H](C)[C@@H]1NC(=O)[C@H](CC(C)C)NC(=O)C(C)(C)NC(=O)[C@@H](NC(=O)[C@@H](CC(C)C)NC(=O)[C@H](CCC(=O)O)NC(=O)[C@@H]2CCCN2C(=O)[C@H](Cc2c[nH]c3ccc(Cl)cc23)NC(=O)[C@H](Cc2c[nH]c3ccccc23)NC(=O)[C@H](CC(=O)O)NC(=O)CCC(=O)NCCCOCCOCCOCCCNC(=O)CN2CCN3CCN4CCN(CC2)CC(=O)[O][In]([O]C(=O)C3)[O]C(=O)C4)CSCc2cccc(c2)CSCCNC1=O [GIP-148, InDOTA-Ttds-Asp-Trp-5Clw-Pro-Glu-leu-[Cys(3MeBn)-Aib-Leu-Ile-AET]] ({X11-Suc}-DW[Trp(5-Cl)]PE[dL]C[Aib]LI; linker 7-C via X7)	< 10 nM
CC[C@H](C)[C@@H]1NC(=O)[C@H](CC(C)C)NC(=O)[C@](C)(CO)NC(=O)[C@@H](NC(=O)[C@@H](CC(C)C)NC(=O)[C@H](CCC(=O)O)NC(=O)[C@@H]2CCCN2C(=O)[C@H](Cc2c[nH]c3ccc(Cl)cc23)NC(=O)[C@H](Cc2c[nH]c3ccccc23)NC(=O)[C@H](CC(=O)O)NC(=O)CCC(=O)NCCCOCCOCCOCCCNC(=O)CN2CCN3CCN4CCN(CC2)CC(=O)[O][In]([O]C(=O)C3)[O]C(=O)C4)CSCc2cccc(c2)CSCCNC1=O [GIP-149, InDOTA-Ttds-Asp-Trp-5Clw-Pro-Glu-leu-[Cys(3MeBn)-Ams-Leu-Ile-AET]] ({X11-Suc}-DW[Trp(5-Cl)]PE[dL]C[αMeS]LI; linker 7-C via X7)	< 10 nM
CC[C@H](C)[C@@H]1NC(=O)[C@H](CC(C)C)NC(=O)C2(CCOCC2)NC(=O)[C@@H](NC(=O)[C@@H](CC(C)C)NC(=O)[C@H](CCC(=O)O)NC(=O)[C@@H]2CCCN2C(=O)[C@H](Cc2c[nH]c3ccc(Cl)cc23)NC(=O)[C@H](Cc2c[nH]c3ccccc23)NC(=O)[C@H](CC(=O)O)NC(=O)CCC(=O)NCCCOCCOCCOCCCNC(=O)CN2CCN3CCN4CCN(CC2)CC(=O)[O][In]([O]C(=O)C3)[O]C(=O)C4)CSCc2cccc(c2)CSCCNC1=O [GIP-150, InDOTA-Ttds-Asp-Trp-5Clw-Pro-Glu-leu-[Cys(3MeBn)-Thp-Leu-Ile-AET]] ({X11-Suc}-DW[Trp(5-Cl)]PE[dL]C[Thp]LI; linker 7-C via X7)	< 10 nM
CC[C@H](C)[C@@H]1NC(=O)[C@H](CC(C)C)NC(=O)C(C)(C)NC(=O)[C@@H](NC(=O)[C@@H](CC(C)C)NC(=O)[C@H](CCC(=O)O)NC(=O)CN(C)C(=O)[C@H](Cc2c[nH]c3ccc(Cl)cc23)NC(=O)[C@H](Cc2c[nH]c3ccccc23)NC(=O)[C@H](CC(=O)O)NC(=O)CCC(=O)NCCCOCCOCCOCCCNC(=O)CN2CCN3CCN4CCN(CC2)CC(=O)[O][In]([O]C(=O)C3)[O]C(=O)C4)CSCc2cccc(c2)CSCCNC1=O [GIP-152, InDOTA-Ttds-Asp-Trp-5Clw-Nmg-Glu-leu-[Cys(3MeBn)-Aib-Leu-Ile-AET]] ({X11-Suc}-DW[Trp(5-Cl)][Sar]E[dL]C[Aib]LI; linker 7-C via X7)	< 10 nM
CC[C@H](C)[C@@H]1NC(=O)[C@H](CC(C)C)NC(=O)C(C)(C)NC(=O)[C@@H](NC(=O)[C@@H](CC(C)C)NC(=O)[C@H](CCC(=O)O)NC(=O)[C@@H]2CCCN2C(=O)[C@H](Cc2c[nH]c3ccc(Cl)cc23)NC(=O)[C@H](Cc2c[nH]c3ccccc23)NC(=O)[C@H](CC(=O)O)NC(=O)CCC(=O)NCCCOCCOCCOCCCNC(=O)CN2CCN3CCN4CCN(CC2)CC(=O)[O][In]([O]C(=O)C3)[O]C(=O)C4)CSCc2cccc(n2)CSCCNC1=O [GIP-154, InDOTA-Ttds-Asp-Trp-5Clw-Pro-Glu-leu-[Cys(2Lut)-Aib-Leu-Ile-AET]] ({X11-Suc}-DW[Trp(5-Cl)]PE[dL]C[Aib]LI; linker 7-C via X6)	< 10 nM

Same assay, conditions: pIC50 Category, competition with 20 nM GIP-057, 4° C., 1 hour

Compound	IC50
CC[C@H](C)[C@@H]1NC(=O)[C@H](CC(C)C)NC(=O)C(C)(C)NC(=O)[C@@H](NC(=O)[C@@H](CC(C)C)NC(=O)[C@H](CCC(=O)O)NC(=O)[C@@H]2CCCN2C(=O)[C@H](Cc2c[nH]c3ccc(Cl)cc23)NC(=O)[C@H](Cc2c[nH]c3ccccc23)NC(=O)[C@H](CC(=O)O)NC(C)=O)CSCc2cccc(c2)CSC[C@@H](C(=O)NCCCOCCOCCOCCCNC(=O)CCC(=O)N[C@@H](CCCCNC(=O)CN2CCN3CCN4CCN(CC2)CC(=O)[O][Lu]([O]C(=O)C3)[O]C(=O)C4)C(N)=O)NC1=O [GIP-156, Ac-Asp-Trp-5Clw-Pro-Glu-leu-[Cys(3MeBn)-Aib-Leu-Ile-Cys]-Ttds-Lys(LuDOTA)-NH2] (Ac-DW[Trp(5-Cl)]PE[dL]C[Aib]LIC-X16; linker 7-11 via mXylylene)	< 10 nM
CC[C@H](C)[C@@H]1NC(=O)[C@H](CC(C)C)NC(=O)[C@](C)(CO)NC(=O)[C@@H](NC(=O)[C@@H](CC(C)C)NC(=O)[C@H](CCC(=O)O)NC(=O)[C@@H]2CCCN2C(=O)[C@H](Cc2c[nH]c3ccc(Cl)cc23)NC(=O)[C@H](Cc2c[nH]c3ccccc23)NC(=O)[C@H](CC(=O)O)NC(=O)CCC(=O)NCCCOCCOCCOCCCNC(=O)CN2CCN3CCN4CCN(CC2)CC(=O)[O][Lu]([O]C(=O)C3)[O]C(=O)C4)CSCc2cccc(c2)CSCCNC1=O [GIP-157, LuDOTA-Ttds-Asp-Trp-5Clw-Pro-Glu-leu-[Cys(3MeBn)-Ams-Leu-Ile-AET]] ({X13-Suc}-DW[Trp(5-Cl)]PE[dL]C[αMeS]LI; linker 7-C via X7)	< 10 nM
CC[C@H](C)[C@@H]1NC(=O)[C@H](CC(C)C)NC(=O)C2(CCOCC2)NC(=O)[C@@H](NC(=O)[C@@H](CC(C)C)NC(=O)[C@H](CCC(=O)O)NC(=O)[C@@H]2CCCN2C(=O)[C@H](Cc2c[nH]c3ccc(Cl)cc23)NC(=O)[C@H](Cc2c[nH]c3ccccc23)NC(=O)[C@H](CC(=O)O)NC(=O)CCC(=O)NCCCOCCOCCOCCCNC(=O)CN2CCN3CCN4CCN(CC2)CC(=O)[O][Lu]([O]C(=O)C3)[O]C(=O)C4)CSCc2cccc(c2)CSCCNC1=O [GIP-158, LuDOTA-Ttds-Asp-Trp-5Clw-Pro-Glu-leu-[Cys(3MeBn)-Thp-Leu-Ile-AET]] ({X13-Suc}-DW[Trp(5-Cl)]PE[dL]C[Thp]LI; linker 7-C via X7)	< 10 nM
